# “Also recorded” adds a separate entry of the source.
# Key:
# P. aeruginosa = test: 48 h biofilm formation assay in catheter tubing; format: cell-based, Pseudomonas aeruginosa (ATCC 27853)
# Procedure: For post-fabrication functionalization of the inner lumen of allyl-TPU catheter tubing with Qx-SH reagents, 0.5 mL of an Ar purged solution containing Qx-SH (10.0 mM) and LAP (5.0 mM) was flowed through 25.0 cm segments of catheter tubing every 7.5 min for the duration of a 30 min pre-soak and 30 min UV treatment (or absence of UV for phys. ads. control). Following treatment, the catheter tubes were rinsed continuously for 30 s with DI water (3×), then rinsed continuously for 30 s with 10% EtOH (3×). All samples were blown dry with N2 and placed under vacuum for 24 h before X-ray photoelectron spectroscopy (XPS) analysis or ethylene oxide (EtO) sterilization.
# (§1) For antimicrobial testing, blade-coated samples and catheter tubing of allyl-TPU were sterilized by EtO sterilization using an Anprolene benchtop sterilizer (Anderson Products, Inc., Haw River, N.C.) following the manufacturer's protocol to deliver approximately 0.5 cc·L^−1 of EtO gas over a 12 h sterilization cycle at 35% humidity and room temperature, followed by a 48 h purge under vacuum. The bacterial strains used in this study included Staphylococcus epidermidis (ATCC 12228), Staphylococcus aureus (25923), Escherichia coli (ATCC 25922), Pseudomonas aeruginosa (ATCC 27853), Enterococcus faecalis (ATCC 29212), and methicillin-resistant Staphylococcus aureus (MRSA) (ATCC BAA-41).
# Biofilm formation was analyzed using overnight cultures of P. aeruginosa grown in TSB and adjusted to an OD600=0.10. An assembly of catheter tubing was prepared using aseptic techniques, and included COOK™ BEACON™ TIP TORCON NB™ Advantage catheter segments (25.0 cm in length) denoted as “CC” and numbered 1-4 from upstream (1) to downstream (4). The catheter assembly was connected using 18 gauge blunt tip stainless steel needles (˜25 mm in length) sterilized in 100% EtOH. CC segments were located before, after, and in between the untreated, phys. ads., and UV-treated allyl-TPU catheter segments modified with Q8-SH to account for any downstream influence of the experimental catheters. With a peristaltic pump flowing at 1.5 mL·min^−1, fresh bacterial inoculum was continuously streamed through the catheter assembly for 2 h, followed by FAB medium (0.10 mM CaCl2, 0.01 mM Fe-EDTA, 0.15 mM (NH4)2SO4, 0.33 mM Na2HPO4, 0.20 mM KH2PO4, 0.50 mM NaCl, 0.50% (wt/vol) casamino acids, 1.0 mM MgCl2, and 10 mM sodium citrate) for 48 h. Samples were fixed with 50 mL of a 4% paraformaldehyde solution, rinsed with 200 mL of PBS, and submerged in PBS for further testing.
# Photographs of the catheter tubing were taken using a camera with a 16-megapixel Sony Exmor RS IMX240 sensor and […] lens. Catheter cross-sections were cut (ca. 2.5 mm in length) from each catheter segment, rinsed thoroughly with DI water, and lyophilized for 24 h for scanning electron microscopy (SEM) analysis. SEM was performed on gold sputter-coated samples using a JEOL-7401 Field Emission Scanning Electron Microscope (JEOL USA, Inc., Peabody, Mass.) at an accelerating voltage of 2.0 kV under 45× and 300× magnification. In addition, lyophilized cross-sections (3.0 mm in length) from randomly selected locations along each catheter segment were placed vertically on a glass slide and imaged under brightfield microscope at 4× magnification. Using Olympus VS-Desktop software, the % biofilm blockage was determined by measuring the inner luminal area of untreated catheters compared to the area of the biofilm on the interior of the contaminated catheters (Equation 1).
# [formula] Results are reported as averages with standard deviations (n=3) for each catheter segment.
# E. coli = test: Live/dead fluorescence assay on blade-coated samples modified with Q8-SH; format: cell-based, Escherichia coli (ATCC 25922); conditions: for E. coli killed: at 10 min
# Procedure: as §1
# A live/dead assay was performed using overnight cultures of E. coli grown in TSB and S. aureus grown in Mueller-Hinton broth (MH). The cells were washed with PBS (3×), resuspended in PBS, and diluted to obtain an OD600=0.15 (measured using a Hach DR2800 Spectrophotometer, λ=600 nm). The bacterial suspensions (1.0 mL) were stained with 2.0 μL of a dye mixture containing equal portions of 3.34 mM SYTO 9 and 20 mM propidium iodide (L7012 LIVE/DEAD™ BACLIGHT™ Bacterial Viability Kit, ThermoFisher Scientific) and allowed to incubate at room temperature in the dark for 15 min. Then, 10 μL of stained bacterial suspension was placed on a glass slide and covered with either untreated, phys. ads., or UV-treated samples modified with Q8-SH for 5 min (S. aureus) or 10 min (E. coli) before imaging. Live/dead microscopy was performed using an IX81 inverted microscope (Olympus, Center Valley, Pa.) and images were processed and quantified using ImageJ software.
# [1] = UV-treated allyl-TPU catheter, 48 h
# [2] = phys. ads. allyl-TPU catheter, 48 h
compound,measurement,setting,value
CCCCCCCC[N+](C)(C)CCCCCCCCOC(=O)CCS.[Cl-] [Q8-SH],"biofilm formation compared to Cook catheter, untreated and phys. ads. controls (in words)","P. aeruginosa; UV-treated allyl-TPU catheter tubing, brightfield microscopy and SEM",more resistant to biofilm formation and less
same,% biofilm blockage (internal volume occlusion),"P. aeruginosa; UV-treated allyl-TPU catheter, inner lumen modified, 48 h, n=3",ca. 15%
same,reduction of biofilm blockage from CC1,P. aeruginosa; [1],85%
same,reduction of biofilm blockage from the untreated control,P. aeruginosa; [1],69%
same,reduction of biofilm blockage from CC1,P. aeruginosa; [2],77%
same,reduction of biofilm blockage from the untreated control,P. aeruginosa; [2],53%
same,E. coli killed,E. coli; UV-treated samples,90%
same,E. coli inoculum killed (in words),"E. coli; UV-treated samples, within 10 min, OD600=0.15",nearly all; also recorded: majority
same,E. coli killed,E. coli; phys. ads. samples,5%

# — patent US11155668B2, “Contact-killing, QAC functionalized thermoplastic polyurethane for catheter applications” (THE UNIVERSITY OF AKRON, priority 2017, dated 2021)
